Assay results taken from the NIST ThermoML archive (doi:10.1021/acs.jced.5b00256).
± gives the expanded uncertainty stated by the source.

Assays:
[1] = relative permittivity at various frequencies (dimensionless); settings: 100 kPa, Liquid, Frequency=2 MHz, Parallel plate capacitor
[2] = 101.33 kPa, Liquid, Pycnometric method
[3] = refractive index (Na D-line) (dimensionless); settings: 100 kPa, Liquid, Standard Abbe refractometry
[4] = refractive index (Na D-line) (dimensionless); xn = mol fraction of the nth substance listed; settings: 100 kPa, Liquid, Standard Abbe refractometry, x1 = 1
[5] = relative permittivity at various frequencies (dimensionless); xn = mol fraction of the nth substance listed; settings: 100 kPa, Liquid, Frequency=2 MHz, Parallel plate capacitor, x1 = 1

Compound | relative permittivity ([1]; 303.15 K) | relative permittivity ([1]; 313.15 K) | relative permittivity ([1]; 323.15 K) | relative permittivity ([1]; 333.15 K) | mass density ([2]; 303.15 K) [kg/m3] | refractive index ([3]; 303.15 K) | refractive index ([3]; 313.15 K) | refractive index ([3]; 323.15 K) | refractive index ([3]; 333.15 K) | mass density ([2]; 313.15 K) [kg/m3] | mass density ([2]; 323.15 K) [kg/m3] | mass density ([2]; 333.15 K) [kg/m3] | refractive index ([4]; 303.15 K) | refractive index ([4]; 313.15 K) | refractive index ([4]; 323.15 K) | refractive index ([4]; 333.15 K) | relative permittivity ([5]; 303.15 K) | relative permittivity ([5]; 313.15 K) | relative permittivity ([5]; 323.15 K) | relative permittivity ([5]; 333.15 K)
COc1cccc(Br)c1 [1-bromo-3-methoxybenzene] | 7.01 ± 0.6 | 6.85 ± 0.6 | 6.74 ± 0.6 | 6.6 ± 0.6 | 1467.6 ± 6.1 | 1.56 ± 0.002 | 1.558 ± 0.002 | 1.553 ± 0.002 | 1.55 ± 0.002 | – | – | – | – | – | – | – | – | – | – | –
CCCO [propan-1-ol] | 19.49 ± 0.6 | 18.53 ± 0.6 | 17.59 ± 0.6 | 16.03 ± 0.6 | 793.9 ± 6 | 1.383 ± 0.002 | 1.38 ± 0.002 | 1.376 ± 0.002 | 1.371 ± 0.002 | 791.7 ± 6 | 784.4 ± 6 | 775.6 ± 6 | – | – | – | – | – | – | – | –
CCCO [propan-1-ol] + COc1cccc(Br)c1 | – | – | – | – | – | – | – | – | – | – | – | – | 1.383 ± 0.002 | 1.38 ± 0.002 | 1.376 ± 0.002 | 1.371 ± 0.002 | 19.49 ± 0.6 | 18.53 ± 0.6 | 17.59 ± 0.6 | 16.03 ± 0.6
